Measurements as given in paper PMC8869728 (Biomedicines, 2022).
Where two headings read alike, the source gives them in different places.

Tests used:
AChE [1] = conditions: read-out: IC50 of AChE inhibitory activities; cited from earlier work
AChE [2] = test system: AChE; design: method as in PMID 32118214; conditions: read-out: IC50 of AChE inhibitory activity; cited from earlier work
[3] = test system: scopolamine-treated amnesiac ICR mice; assay: Passive avoidance test in scopolamine-induced amnesiac ICR mice; conditions: scopolamine 1 mg/kg i.p.
Protocol: The 6-week-old male ICR mice were from the Laboratory Animal Center, College of Medicine, National Taiwan University (Taipei, Taiwan). The Prolab® RMH2500 normal diets (LabDiet Co., St. Louis, MO, USA) and water were free access during the animal experiments. After one week of acclimation, the VT-95EE or VT-95EE-EA pre-treatments were used to evaluate preventive functions as follows. […] At the first stage, the extract (VT-95EE and VT-95EE-EA)-administered group, ICR mice were treated from day 1 to day 11 by a single oral administration daily by gavage. […] Except for the blank, each mouse in all groups was intraperitoneally injected with scopolamine (1 mg/kg) 30 min after the oral administration. Each mouse in the blank group was injected with an equal volume of PBS instead of scopolamine. Each mouse received a learning and memory evaluation by a passive avoidance test 30 min after scopolamine injection at day 13 to day 14. All mice were sacrificed in the end of animal experiments at day 15, and the brain tissue of mouse in each group was isolated, weighted, and stored at −80°C for further uses.
The pre-treatment was used to evaluate preventive functions. […] At the first stage, the purified compound (vitisin A and vitisin B) administered group, ICR mice were treated from day 1 to day 9 by a single oral administration daily by gavage. […] Except for the blank, each mouse in all groups was intraperitoneally injected with scopolamine (1 mg/kg) 30 min after the oral administration. Each mouse in the blank group was injected with an equal volume of PBS instead of scoploamine. Each mouse received a learning and memory evaluation by a passive avoidance test 30 min after scopolamine injection at day 11 to day 12. All mice were sacrificed in the end of animal experiments at day 13, and the brain tissue of mice in each group was isolated, weighted, and stored at −80 °C for further uses.
The apparatus for passive avoidance test is a shuttle chamber composed of a bright box and a dark box; the dark box could be closed by a manual guillotine door (AccuScan Instruments Inc, Columbus, OH, USA). The dark box contained a wired metal floor, through which the electric foot shocks were automatically delivered in the acquisition trial. The first day was the acquisition trial, and the second day was the retention trial. For the acquisition trial, each mouse was placed around the shuttle chamber to acclimatize to the environment; 30 min later, each mouse was transferred to the bright box to record the time in the bright box (the step-through latency, s).

recombinant human AChE = biological target: T1, recombinant human AChE (Homo sapiens, UniProt P22303); assay: biochemical; conditions: calculated from linear equation of three concentrations; read-out: IC50 of AChE inhibition
T1 construct: purchased R&D Systems Inc. (Minneapolis, MN)
Excerpt: The synthetic acetylthiocholine iodide was used as substrates for in vitro AChE activity assays. […] The released thiocholine was reacted with DTNB to generate yellowish 5-thio-2-nitrobenzoate. […] The AChE inhibitory activities (%) were as following: [(A405blank − A405sample)/(A405blank)] × 100%.

recombinant human MAO-B = biological target: T2, recombinant human MAO-B (Homo sapiens, UniProt P27338); assay: MAO-B inhibitory activities in vitro (kynuramine fluorescence); type: biochemical; conditions: calculated from linear equation of three concentrations; read-out: IC50 of MAO-B inhibition
T2 construct: purchased Sigma Chemical Co. (St. Louis, MO, USA)
T2 sequence (P27338 1-520): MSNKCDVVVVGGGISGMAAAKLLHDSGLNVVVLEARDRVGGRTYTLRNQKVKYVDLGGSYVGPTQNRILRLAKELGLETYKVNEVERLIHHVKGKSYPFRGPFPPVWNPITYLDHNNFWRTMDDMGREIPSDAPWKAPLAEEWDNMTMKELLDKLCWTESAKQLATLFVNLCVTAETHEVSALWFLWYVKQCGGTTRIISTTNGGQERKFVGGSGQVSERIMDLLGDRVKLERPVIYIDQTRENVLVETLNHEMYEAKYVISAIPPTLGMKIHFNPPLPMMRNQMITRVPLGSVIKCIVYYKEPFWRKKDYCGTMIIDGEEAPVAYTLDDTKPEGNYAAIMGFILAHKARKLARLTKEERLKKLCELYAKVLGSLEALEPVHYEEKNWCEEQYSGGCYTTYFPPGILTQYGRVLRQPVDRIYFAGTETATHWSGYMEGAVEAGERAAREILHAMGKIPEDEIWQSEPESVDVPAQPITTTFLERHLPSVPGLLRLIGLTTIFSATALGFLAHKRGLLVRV
Protocol: The kynuramine was used as the MAO-B substrate to generate a fluorescent product, 4-hydroxyquinoline, which was used to screen MAO-B inhibitory activity assays. […] The MAO-B inhibition (%) was calculated as the following: [(Fblank − Fsample)/(Fblank)] × 100%. The IC50 of MAO-B activity was calculated from each linear equation from three used concentrations for MAO-B inhibitions.

SH-SY5Y cells = assay: Neuroprotective activities against MGO-induced SH-SY5Y cell deaths (SRB cell viability); type: cell-based, human; conditions: then 500 μM MGO 24 h
Protocol: The SH-SY5Y cells were cultured at 37 °C in the mixed medium of EMEM/F12 (1:1) and 10% FBS in the humidified atmosphere and 5% CO2. […] The treated SH-SY5Y cells were washed with PBS, and then the media without (the blank) or with 500 μM MGO (the control group and sample groups) were added for additional 24-h incubation at 37 °C. The cell viability was assayed by the SRB dyes as follows. The MGO-treated SH-SY5Y cells were washed twice with PBS, fixed by 10% trichloroacetic acid, and then stained with 0.2% SRB (dissolved in 1% acetic acid) for 30 min. The unbound dyes were removed by washing the stained cells with 1% acetic acid. The bound dyes in alive cells were extracted by 500 µL of 10 mM Tris-HCl buffer (pH 7.9). The absorbance at 540 nm was measured using an ELISA reader (TECAN, Männedorf, Switzerland).

AChE [4] = biological target: T3, AChE (Mus musculus, UniProt P21836); type: in vivo; conditions: vitisin A or B 40 mg/kg oral; donepezil 5 mg/kg; scopolamine-treated mice
T3 construct: The isolated whole brain tissue was weighted, and powdered in liquid nitrogen using a mortar and pestle; from tissue; host or cells: whole brain of ICR mice (PBS extract, supernatant)
T3 sequence (P21836 32-614): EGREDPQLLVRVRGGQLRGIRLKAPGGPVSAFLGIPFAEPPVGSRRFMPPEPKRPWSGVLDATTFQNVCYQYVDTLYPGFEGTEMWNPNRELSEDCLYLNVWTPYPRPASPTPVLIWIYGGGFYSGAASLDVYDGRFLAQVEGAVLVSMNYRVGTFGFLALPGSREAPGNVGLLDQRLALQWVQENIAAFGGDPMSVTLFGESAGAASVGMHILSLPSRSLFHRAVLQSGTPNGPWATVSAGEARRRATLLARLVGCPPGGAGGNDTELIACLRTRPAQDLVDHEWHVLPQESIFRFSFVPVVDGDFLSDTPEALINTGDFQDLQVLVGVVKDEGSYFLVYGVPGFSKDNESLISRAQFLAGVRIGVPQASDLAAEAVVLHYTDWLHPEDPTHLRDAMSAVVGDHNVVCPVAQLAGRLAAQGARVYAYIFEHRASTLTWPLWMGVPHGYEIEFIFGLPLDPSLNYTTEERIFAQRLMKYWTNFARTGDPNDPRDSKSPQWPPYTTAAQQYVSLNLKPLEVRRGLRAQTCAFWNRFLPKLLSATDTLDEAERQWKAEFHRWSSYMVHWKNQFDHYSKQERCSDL
Protocol: (§1) The isolated whole brain tissue was weighted, and powdered in liquid nitrogen using a mortar and pestle. The proteins in the tissue powders were suspended and extracted by 1 mL, one-fold-diluted PBS. […] The protein contents in tissue extracts were determined by the BCA^TM protein assay kit (Thermo Fisher Scientific Inc.), and BSA was used to plot the standard curve. The AChE activity in the brain extracts was determined following the previous report. […] The malondialdehyde (MDA) levels in the brain extracts was determined using acidic TBA. The 320 μL of 0.5% TBA in 10% trichloroacetic acid was premixed with 80 μL of 5-fold diluted tissue extracts, and then heated at boiling water for 20 min, and then centrifuged at 10,000 rpm, 4 °C for 30 min. […] For determining protein expressions of BDNF and its receptor, TrkB, among brain extracts of the treated mice, the immune stains were performed onto polyvinylidene difluoride (PVDF) membranes (Millipore, Bedford, MA, USA). […] The western chemiluminescent HRP substrate kit (WBKL S0050, Millipore) was used to stain the target protein expressions, which the image system [Syngene GeneGnome5 imaging system (Cambridge, UK)] was used to quantify the image levels of target protein in the immune blots.

[5] = test system: malondialdehyde (MDA) levels; assay: MDA levels in mouse brain tissue extracts (TBA); type: in vivo; conditions: vitisin A or B 40 mg/kg oral; donepezil 5 mg/kg; scopolamine-treated mice
Protocol: as §1

[6] = test system: brain-derived neurotrophic factor (BDNF); assay: BDNF protein expression in mouse brain tissue extracts (immune blot); type: in vivo; conditions: vitisin A or B 40 mg/kg oral; donepezil 5 mg/kg; scopolamine-treated mice
Protocol: as §1

[7] = test system: tropomyosin receptor kinase B (TrkB); assay: TrkB protein expression in mouse brain tissue extracts (immune blot); type: in vivo; conditions: vitisin A or B 40 mg/kg oral; donepezil 5 mg/kg; scopolamine-treated mice
Protocol: as §1

[8] = test system: spontaneously hypertensive rats; design: method as in PMID 22762395; conditions: at the 8-h after a single oral dose of 10 mg/kg; cited from earlier work
[9] = test system: C57BL/6 mice treated with high fat diets; design: method as in PMID 26448517; conditions: oral administration once a day at dose of 25 mg/kg with high fat diets; cited from earlier work
[10] = test system: endothelium-intact thoracic aortic rings of SD rats; design: method as in PMID 22762395; conditions: by increasing NO releases; cited from earlier work
[11] = compound study: vitisin A or vitisin B 40 mg/kg oral daily day 1-13, donepezil 5 mg/kg day 10-13
[12] = pretreatment 2.5, 5, 10, and 20 μM for 24 h

T1 sequence (P22303 32-614): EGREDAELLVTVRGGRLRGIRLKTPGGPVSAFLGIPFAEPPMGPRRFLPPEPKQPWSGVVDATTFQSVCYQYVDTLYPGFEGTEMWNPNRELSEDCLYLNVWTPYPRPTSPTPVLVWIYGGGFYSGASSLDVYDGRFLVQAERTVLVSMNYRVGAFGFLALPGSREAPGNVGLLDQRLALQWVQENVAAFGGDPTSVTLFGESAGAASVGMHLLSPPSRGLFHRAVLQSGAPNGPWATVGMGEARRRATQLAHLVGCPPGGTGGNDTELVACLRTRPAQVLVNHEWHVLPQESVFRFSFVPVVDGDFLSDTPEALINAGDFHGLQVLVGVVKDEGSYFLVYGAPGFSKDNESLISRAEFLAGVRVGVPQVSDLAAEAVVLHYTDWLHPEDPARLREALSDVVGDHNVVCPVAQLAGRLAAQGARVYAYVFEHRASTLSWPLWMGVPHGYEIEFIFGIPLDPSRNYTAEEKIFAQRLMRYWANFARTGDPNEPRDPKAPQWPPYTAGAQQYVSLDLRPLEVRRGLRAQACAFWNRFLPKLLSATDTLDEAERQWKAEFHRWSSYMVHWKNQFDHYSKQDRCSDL

O=C(OC[C@H]1O[C@@H](OC(=O)c2cc(O)c(O)c(O)c2)[C@H](OC(=O)c2cc(O)c(O)c(O)c2)[C@@H](OC(=O)c2cc(O)c(O)c(O)c2)[C@@H]1O)c1cc(O)c(O)c(O)c1 [1,2,3,6-tetra-O-galloyl-β-D-glucopyranoside]
IC50 (AChE [1]): 84.2 µM

COc1cc(/C=C/C(=O)CC(=O)/C=C/c2ccc(O)c(O)c2)ccc1O [demethylcurcumin]
IC50 (AChE [2]): 66.9 µM

COc1cc2c(cc1OC)C(=O)C(CC1CCN(Cc3ccccc3)CC1)C2 (stereo not drawn) [donepezil, reference compound]
step-through latency in the retention trial compared to the control [3, 11]: significant longer time
step-through latency in the retention trial compared to the control ([3]; extract study: VT-95EE or VT-95EE-EA 200 and 400 mg/kg oral daily day 1-15, donepezil 5 mg/kg day 12-15): significant longer time

Oc1ccc([C@H]2c3c(O)cc(O)cc3[C@H]3c4c(cc(O)cc4[C@@H]2[C@H]2c4cc(O)cc5c4[C@H](c4cc(O)cc(O)c4[C@@H]2c2ccc(O)cc2)[C@@H](c2ccc(O)cc2)O5)O[C@@H]3c2ccc(O)cc2)cc1 [hopeaphenol, (+)-hopeaphenol]
IC50 (recombinant human AChE): 8.06 µM
IC50 (recombinant human MAO-B): 88.2 µM
MGO-treated cell viability compared to the control (SH-SY5Y cells; [12]): no significant difference

Oc1ccc(/C=C/c2cc(O)cc(O)c2)cc1 [resveratrol, reference compound]
IC50 (recombinant human MAO-B): 41.3 µM
MGO-treated cell viability compared to the control (SH-SY5Y cells; [12]): no significant difference

O=C(OC1O[C@@H]2COC(=O)c3cc(O)c(O)c(O)c3-c3c(cc(O)c(O)c3O)C(=O)O[C@H]2[C@H](OC(=O)c2cc(O)c(O)c(O)c2)[C@H]1OC(=O)c1cc(O)c(O)c(O)c1)c1cc(O)c(O)c(O)c1 (stereo partly drawn) [tellimagrandin II]
IC50 (AChE [1]): 18.6 µM

O=C(O[C@H]1[C@@H]2OC(=O)c3cc(O)c(O)c(O)c3-c3c(cc(O)c(O)c3O)C(=O)OC[C@H]2OC(O)[C@@H]1OC(=O)c1cc(O)c(O)c(O)c1)c1cc(O)c(O)c(O)c1 (stereo partly drawn) [tellimagrandin I]
IC50 (AChE [1]): 18.4 µM

Oc1ccc([C@H]2c3c(O)cc(O)cc3[C@H]3c4c(cc(O)cc4[C@@H]2c2cc(/C=C/c4cc(O)cc5c4[C@H](c4cc(O)cc(O)c4)[C@@H](c4ccc(O)cc4)O5)ccc2O)O[C@@H]3c2ccc(O)cc2)cc1 [vitisin A, (+)-vitisin A]
IC50 (recombinant human AChE): 1.29 µM
IC50 (recombinant human MAO-B): 4.94 µM
MGO-treated cell viability compared to the control (SH-SY5Y cells; [12]): significantly to elevate MGO-treated cell viability
AChE activity in brain tissue extracts compared to the control (AChE [4]): lower increase in AChE and MDA levels
MDA levels in brain tissue extracts compared to the control [5]: lower increase in AChE and MDA levels
BDNF protein expression in brain tissue extracts [6]: recover both protein expressions of the reduced BDNF and TrkB
TrkB protein expression in brain tissue extracts [7]: recover both protein expressions of the reduced BDNF and TrkB
greatest reduction in diastolic blood pressure [8]: 25.7 mmHg
greatest reduction in systolic blood pressure [8]: 23.6 mmHg
weight gains [9]: reduce weight gains
effect on phenylephrine-induced tension [10]: vasodilating effects
step-through latency in the retention trial compared to the control [3, 11]: significant longer time

Oc1ccc([C@H]2Oc3cc(O)cc(/C=C/c4ccc5c(c4)[C@@H](c4cc(O)cc6c4[C@H](c4cc(O)cc(O)c4)[C@@H](c4ccc(O)cc4)O6)[C@H](c4ccc(O)cc4)O5)c3[C@@H]2c2cc(O)cc(O)c2)cc1 [vitisin B, (−)-vitisin B]
IC50 (recombinant human AChE): 1.33 µM
IC50 (recombinant human MAO-B): 1.08 µM
MGO-treated cell viability compared to the control (SH-SY5Y cells; pretreatment 5, 10, and 20 μM for 24 h): significantly to elevate MGO-treated cell viability
AChE activity in brain tissue extracts compared to the control (AChE [4]): lower increased AChE activities
MDA levels in brain tissue extracts compared to the control [5]: no effect on reduction of MDA level
BDNF protein expression in brain tissue extracts [6]: recover the reduced BDNF protein expressions
step-through latency in the retention trial compared to the control [3, 11]: no significant difference
